From ChEMBL document CHEMBL4265874 (Eur J Med Chem, 2017)

Assays:
[1] = target: Proto-oncogene tyrosine-protein kinase ROS (Homo sapiens, UniProt P08922, G2032R)
physchem = details: octanol/water, pH 7.4
[2] = dog, mdckii-le
Description: (§1) Intrinsic absorptive permeability from apical side to basolateral side of dog RRCK cells

[3] = dog, mdckii-le; remark: listed apart in the source
Description: (§2) Intrinsic absorptive permeability from basolateral side to apical side of dog RRCK cells

in vitro [4] = details: human, liver microsomes
Description: Intrinsic clearance in human liver microsomes

in vitro [5] = details: dog, MDCK
Description: as §2

in vivo [6] = details: rat, brain / plasma
Description: Ratio of fAUC in brain to plasma in rat

in vivo [7] = details: rat, CSF / free plasma
Description: Ratio of AUC in CSF to free plasma in rat

in vitro [8] = details: dog, MDCK; remark: listed apart in the source
Description: as §1

Proto-oncogene tyrosine-protein kinase ROS, sequence (P08922 28-2347 G2032R limits assumed): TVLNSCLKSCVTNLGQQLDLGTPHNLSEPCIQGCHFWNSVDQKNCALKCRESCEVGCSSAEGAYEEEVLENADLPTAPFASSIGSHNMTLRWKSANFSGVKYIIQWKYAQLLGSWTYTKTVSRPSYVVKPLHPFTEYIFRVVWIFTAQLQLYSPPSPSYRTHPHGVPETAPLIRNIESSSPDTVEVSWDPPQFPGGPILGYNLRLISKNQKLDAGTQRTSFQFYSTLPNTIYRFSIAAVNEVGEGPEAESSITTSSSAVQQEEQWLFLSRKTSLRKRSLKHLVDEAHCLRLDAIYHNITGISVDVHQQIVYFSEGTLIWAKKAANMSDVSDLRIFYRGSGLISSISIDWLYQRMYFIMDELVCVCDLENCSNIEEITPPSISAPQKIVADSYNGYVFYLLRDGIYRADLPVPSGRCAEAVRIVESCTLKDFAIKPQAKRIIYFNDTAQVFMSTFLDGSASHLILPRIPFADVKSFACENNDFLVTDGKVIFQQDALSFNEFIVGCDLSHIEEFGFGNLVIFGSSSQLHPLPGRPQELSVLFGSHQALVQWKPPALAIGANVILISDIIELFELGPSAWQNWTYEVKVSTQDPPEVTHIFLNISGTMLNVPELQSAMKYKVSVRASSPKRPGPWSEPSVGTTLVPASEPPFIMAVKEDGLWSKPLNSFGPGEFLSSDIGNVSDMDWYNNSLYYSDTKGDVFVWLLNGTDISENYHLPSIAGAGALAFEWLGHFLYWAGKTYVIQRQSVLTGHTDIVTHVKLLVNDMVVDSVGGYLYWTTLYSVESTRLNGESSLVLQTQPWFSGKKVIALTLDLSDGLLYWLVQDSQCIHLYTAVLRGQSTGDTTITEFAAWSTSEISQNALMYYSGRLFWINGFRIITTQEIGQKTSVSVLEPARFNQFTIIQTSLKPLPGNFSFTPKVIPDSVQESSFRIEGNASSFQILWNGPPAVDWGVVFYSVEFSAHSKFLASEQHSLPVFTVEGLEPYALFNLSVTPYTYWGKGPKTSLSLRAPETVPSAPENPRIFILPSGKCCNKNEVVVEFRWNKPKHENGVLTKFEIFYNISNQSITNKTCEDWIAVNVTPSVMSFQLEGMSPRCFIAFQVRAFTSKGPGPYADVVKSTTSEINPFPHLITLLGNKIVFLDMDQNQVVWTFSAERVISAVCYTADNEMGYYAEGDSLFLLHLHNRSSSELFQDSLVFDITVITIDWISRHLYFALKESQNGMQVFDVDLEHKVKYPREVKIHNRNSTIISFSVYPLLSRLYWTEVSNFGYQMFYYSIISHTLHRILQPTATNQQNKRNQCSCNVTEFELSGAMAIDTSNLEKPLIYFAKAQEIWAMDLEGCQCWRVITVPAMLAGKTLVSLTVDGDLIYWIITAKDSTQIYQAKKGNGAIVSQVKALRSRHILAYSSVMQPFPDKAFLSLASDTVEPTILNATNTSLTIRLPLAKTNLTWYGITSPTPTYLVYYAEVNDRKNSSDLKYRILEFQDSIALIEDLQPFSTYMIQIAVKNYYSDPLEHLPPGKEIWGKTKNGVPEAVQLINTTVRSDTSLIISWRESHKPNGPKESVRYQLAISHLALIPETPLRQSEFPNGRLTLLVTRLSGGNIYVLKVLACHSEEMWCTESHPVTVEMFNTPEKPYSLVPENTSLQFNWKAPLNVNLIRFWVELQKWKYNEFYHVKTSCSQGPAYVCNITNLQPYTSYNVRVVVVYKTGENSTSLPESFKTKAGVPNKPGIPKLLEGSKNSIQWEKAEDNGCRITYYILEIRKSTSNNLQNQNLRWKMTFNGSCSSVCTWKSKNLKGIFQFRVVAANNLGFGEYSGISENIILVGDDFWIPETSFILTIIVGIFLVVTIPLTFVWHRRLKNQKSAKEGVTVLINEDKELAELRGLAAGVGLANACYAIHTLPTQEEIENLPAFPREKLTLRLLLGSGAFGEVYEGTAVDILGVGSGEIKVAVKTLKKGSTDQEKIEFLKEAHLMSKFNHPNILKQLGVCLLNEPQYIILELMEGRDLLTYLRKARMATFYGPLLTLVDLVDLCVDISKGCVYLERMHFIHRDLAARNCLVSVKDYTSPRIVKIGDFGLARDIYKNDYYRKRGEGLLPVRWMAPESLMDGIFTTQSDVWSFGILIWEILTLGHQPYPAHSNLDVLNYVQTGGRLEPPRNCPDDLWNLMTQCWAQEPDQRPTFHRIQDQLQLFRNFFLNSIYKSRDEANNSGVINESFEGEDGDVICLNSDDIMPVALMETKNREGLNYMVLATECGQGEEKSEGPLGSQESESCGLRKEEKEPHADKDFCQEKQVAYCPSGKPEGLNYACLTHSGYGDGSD

In the case of CCc1cc2c(cc1N1CCC(N3CCOCC3)CC1)C(C)(C)c1[nH]c3cc(C#N)ccc3c1C2=O [ALECTINIB], the Ki [1] is reported as > 3 µM.

Work on Cc1[nH][n+](C)c2c1-c1cnc(N)c(c1)O[C@H](C)c1cc(F)ccc1C(=O)N(C)C2 yielded a logD (physchem) of 2.2, a Papp [2] of 8.1 ×10⁻⁶ cm/s and a Papp [3] of 28.3 ×10⁻⁶ cm/s. The CLint scaled (in vitro [4]) was 8.6 mL/min/kg.

Work on C[C@H]1Oc2cc(cnc2N)-c2c(nn(C)c2C#N)CN(C)C(=O)c2ccc(F)cc21 [LORLATINIB] yielded a Papp B→A (in vitro [5]) of 28 ×10⁻⁶ cm/s, a Kp uu (in vivo [6]) of 0.21 and a Kp uu (in vivo [7]) of 0.31. For the same molecule, the Papp A→B (in vitro [8]) was 19.3 ×10⁻⁶ cm/s.
